# Source: paper PMC4433810 (European journal of medicinal chemistry, 2015)
# What was measured:
# KB cells = assay: Folic acid; assay type: cell-based; details: 25 μM of 11e, absence vs presence of folic acid (250 μM); p < 0.01
# [1] = tested on: histone H4 acetylation (intracellular marker of HDAC1 inhibition) in KB cells; assay: Western blot analysis of histone H4 acetylation in KB cells; assay type: cell-based; details: 24 h
# [2] = tested on: tubulin acetylation (marker of HDAC6 activity) in KB cells; assay: Western blot analysis of tubulin acetylation in KB cells; assay type: cell-based; details: 4 h, at IC50 doses and above
# [3] = tested on: FR (−) lung cancer cell line A549; assay: Cell viability; assay type: cell-based
# [4] = tested on: HeLa (cervical carcinoma) cells, FR (+); assay: Cell viability; assay type: cell-based; details: up to 100 μM
# [5] = tested on: KB (oral carcinoma) cells, FR (+); assay: Cell viability; assay type: cell-based; details: up to 100 μM
# HDAC8 = biological target: T1, HDAC8 (Homo sapiens, UniProt Q9BY41); assay: SAMDI mass spectrometry HDAC activity assay, HDAC8; assay type: biochemical
# T1 sequence (Q9BY41 1-377): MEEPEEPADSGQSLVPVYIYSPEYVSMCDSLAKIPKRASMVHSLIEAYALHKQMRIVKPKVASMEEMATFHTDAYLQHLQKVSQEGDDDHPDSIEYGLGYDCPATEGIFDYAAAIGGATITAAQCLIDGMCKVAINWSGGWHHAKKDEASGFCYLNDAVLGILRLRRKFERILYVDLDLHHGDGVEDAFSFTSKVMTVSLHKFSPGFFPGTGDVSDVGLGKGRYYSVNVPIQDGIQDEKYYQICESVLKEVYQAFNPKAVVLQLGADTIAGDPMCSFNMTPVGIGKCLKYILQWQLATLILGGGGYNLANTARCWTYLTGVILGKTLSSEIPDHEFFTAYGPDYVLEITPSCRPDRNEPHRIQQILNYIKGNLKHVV
# HDAC1 = HDAC1 (Homo sapiens, UniProt Q13547); assay: SAMDI mass spectrometry HDAC activity assay, HDAC1; assay type: biochemical
# HDAC6 = biological target: T2, HDAC6 (Homo sapiens, UniProt Q9UBN7); assay: SAMDI mass spectrometry HDAC activity assay, HDAC6; assay type: biochemical
# T2 sequence (Q9UBN7 1-1215): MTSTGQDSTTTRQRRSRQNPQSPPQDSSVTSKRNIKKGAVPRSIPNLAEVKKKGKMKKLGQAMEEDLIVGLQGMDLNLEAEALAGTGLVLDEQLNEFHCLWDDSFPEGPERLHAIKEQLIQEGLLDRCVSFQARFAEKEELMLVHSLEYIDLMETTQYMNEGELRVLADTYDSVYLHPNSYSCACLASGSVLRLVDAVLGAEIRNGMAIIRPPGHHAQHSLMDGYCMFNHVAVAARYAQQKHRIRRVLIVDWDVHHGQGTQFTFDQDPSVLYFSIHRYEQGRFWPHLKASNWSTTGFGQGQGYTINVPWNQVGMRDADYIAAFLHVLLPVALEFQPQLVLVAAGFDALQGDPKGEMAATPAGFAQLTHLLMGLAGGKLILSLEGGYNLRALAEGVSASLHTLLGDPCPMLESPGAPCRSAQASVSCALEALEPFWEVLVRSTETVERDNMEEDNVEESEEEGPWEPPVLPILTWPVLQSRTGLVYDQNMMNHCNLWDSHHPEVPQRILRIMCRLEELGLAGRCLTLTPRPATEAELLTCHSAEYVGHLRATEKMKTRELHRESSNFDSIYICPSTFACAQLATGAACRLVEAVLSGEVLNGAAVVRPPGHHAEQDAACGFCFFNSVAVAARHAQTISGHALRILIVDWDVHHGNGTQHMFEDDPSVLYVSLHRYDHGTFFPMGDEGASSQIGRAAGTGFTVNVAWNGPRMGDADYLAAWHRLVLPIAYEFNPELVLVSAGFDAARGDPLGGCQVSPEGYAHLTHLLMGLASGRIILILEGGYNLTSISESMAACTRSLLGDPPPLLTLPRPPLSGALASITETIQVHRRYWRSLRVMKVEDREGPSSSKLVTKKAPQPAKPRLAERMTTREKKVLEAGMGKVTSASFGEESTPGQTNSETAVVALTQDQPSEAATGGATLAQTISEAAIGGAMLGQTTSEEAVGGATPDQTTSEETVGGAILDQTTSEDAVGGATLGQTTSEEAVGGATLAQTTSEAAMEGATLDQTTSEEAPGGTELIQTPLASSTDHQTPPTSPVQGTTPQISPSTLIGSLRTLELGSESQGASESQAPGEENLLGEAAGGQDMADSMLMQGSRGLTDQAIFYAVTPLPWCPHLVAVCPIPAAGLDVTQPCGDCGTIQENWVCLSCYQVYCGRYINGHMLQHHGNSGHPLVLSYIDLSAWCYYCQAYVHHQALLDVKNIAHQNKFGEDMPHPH
# [6] = SAHA 2 and 20μM, 11d 50 and 100μM, 11e 30 and 100μM
# HDAC1, sequence (Q13547 whole entry): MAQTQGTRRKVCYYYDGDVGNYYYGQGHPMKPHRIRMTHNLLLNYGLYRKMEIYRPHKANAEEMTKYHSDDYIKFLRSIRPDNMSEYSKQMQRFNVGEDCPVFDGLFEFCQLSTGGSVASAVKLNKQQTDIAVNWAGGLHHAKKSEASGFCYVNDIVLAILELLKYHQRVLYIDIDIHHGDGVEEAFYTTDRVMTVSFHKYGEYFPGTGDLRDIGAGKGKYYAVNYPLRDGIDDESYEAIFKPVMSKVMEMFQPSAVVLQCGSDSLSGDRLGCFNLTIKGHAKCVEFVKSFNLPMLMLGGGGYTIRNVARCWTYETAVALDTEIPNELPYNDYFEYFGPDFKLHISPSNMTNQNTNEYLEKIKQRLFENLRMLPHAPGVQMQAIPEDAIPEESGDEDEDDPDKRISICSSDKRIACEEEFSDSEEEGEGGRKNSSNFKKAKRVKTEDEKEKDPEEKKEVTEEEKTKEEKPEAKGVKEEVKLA
compound,measurement,setting,value
"Nc1nc2ncc(CNc3ccc(C(=O)NCCCCCCCC(=O)NO)cc3)nc2c(=O)[nH]1 [11e, 4-(((2-Amino-4-oxo-3,4-dihydropteridin-6-yl)methyl)amino)-N-(8-(hydroxyamino)-8-oxooctyl)benzamide]",Effect of folic acid on cytotoxicity (viability of KB cells),KB cells,reduced the cytotoxicity
same,Histone H4 acetylation,[1]; [6],dose dependent increases in histone H4 acetylation
same,Acetylated tubulin levels,[2],increase in acetylated tubulin levels
same,"Activity against A549 cells, in words",[3],inactive
"Nc1nc2ncc(CNc3ccc(C(=O)NCCCCCCC(=O)NO)cc3)nc2c(=O)[nH]1 [11d, 4-(((2-Amino-4-oxo-3,4-dihydropteridin-6-yl)methyl)amino)-N-(7-(hydroxyamino)-7-oxoheptyl)benzamide]",Histone H4 acetylation,[1]; [6],dose dependent increases in histone H4 acetylation
same,Acetylated tubulin levels,[2],increase in acetylated tubulin levels
same,"Activity against A549 cells, in words",[3],inactive
"O=C(CCCCCCC(=O)Nc1ccccc1)NO [SAHA, reference compound]",Histone H4 acetylation,[1]; [6],dose dependent increases in histone H4 acetylation
same,Acetylated tubulin levels,[2],increase in acetylated tubulin levels
"Nc1nc2ncc(CNc3ccc(C(=O)NO)cc3)nc2c(=O)[nH]1 [compound 7, 4-(((2-Amino-4-oxo-3,4-dihydropteridin-6-yl)methyl)amino)-N-hydroxybenzamide]","Cytotoxicity to HeLa cells, in words",[4],not cytotoxic
same,Histone H4 acetylation,"[1]; 100 μM, relative to the control",little effect on H4 acetylation
same,"Cytotoxicity to KB cells, in words",[5],not cytotoxic
"CN1CCc2c(c3ccccc3n2Cc2ccc(C(=O)NO)cc2)C1 [Tubastatin A, reference compound]",Histone H4 acetylation,[1]; 14 μM,significant increase in H4 acetylation
"Nc1nc2ncc(CNc3ccc(C(=O)N[C@@H](CCC(=O)NO)C(=O)O)cc3)nc2c(=O)[nH]1 [compound 6, 2-(4-(((2-Amino-4-oxo-3,4-dihydropteridin-6-yl)methyl)amino)benzamido)-5-(hydroxyamino)-5-oxopentanoic acid]","HDAC8 inhibition, in words",HDAC8,inactive
same,"HDAC1 inhibition, in words",HDAC1,inactive
same,"HDAC6 inhibition, in words",HDAC6,inactive
